This passage reports Ki results from patent US9617276B2, “Compounds and methods for treating AIDS and HIV infections” (priority 2009, dated 2017).

A value given as a limit tells only on which side of the number the result lay.

For this test, the target named is T1, HIV-1 protease (Human immunodeficiency virus type 1 group M subtype B, UniProt P04585).
T1 construct: A simple, continuous fluorometric assay for HIV protease
Nature of the test: HIV protease enzyme inhibition, fluorometric assay of Toth and Marshall. The test is classed as biochemical. Particulars: Ki. The protocol: The inhibitory potencies of acyclic and cyclic inhibitors were measured by the assay protocol of Toth and Marshall (Toth, M. V.; Marshall, G. R. A simple, continuous fluorometric assay for HIV protease. Int. J. Pep. Protien Res. 1990, 36, 544-55).

The compound `COc1ccc2c(c1)OCCCC=CCCCCN(CC(O)C(Cc1ccccc1)NC(=O)OC1COC3OCCC13)S2(=O)=O` (centres unmarked) [Compound 14b] yielded a Ki of under 0.7 nM. The Ki (Table 2) is under 1 nM.
